Laboratory results as given in patent publication US20110028758A1, “Trans-cinnamic acid derivative, its preparation mathod and the use” (priority 2007, published 2011).
Converted amounts (≈) assume the structure as drawn. “Also recorded” adds a separate entry of the source. Where two headings read alike, the source gives them in different places.

Assays:
[1] = test system: mice ascites hepatoma cell strain H22; assay: Anti-tumor test in vivo, mice transplanted tumor of liver cancer H22; design: species or system Kunming mice
Method: The mice ascites hepatoma cell strain H22 is purchased from the Experimental Center of Zhongshan University.
Recovery the mice ascites hepatoma cell strain H22, put the cell suspension liquid into a centrifugal tube and use the 4° C. saline to wash the suspension liquid twice, then centrifuge to discard the supernatant, add appropriate 4° C. saline to dilute the suspension liquid, count cells with 0.2% trypan blue, adjust the density to 10^7 cell/ml, according to 0.2 (ml/mice) intraperitoneal inoculation H22 cell suspension liquid.
After ten days of the intraperitoneal inoculation, the cervical vertebra is dislocated. Disinfect the mice abdominal skin, and suck the milky ascites with a sterile syringe, then adjust the concentration of tumor cells to 1×10^7 cell/ml with injection used saline. Disinfect the right armpit skin of the Kunming mice with alcohol swab, subcutaneously vaccinate the cell suspension liquid 0.2 ml, conventional feeding. […] Totally there are 180 tumor-bearing mice.
The 180 tumor-bearing mice are divided into 18 groups by the weigh of the mice, wherein each group has 10 mice (half male and half female). The drug delivery methods of each group are shown in Table 3 to illustrate eighteen groups of mice drug delivery situation.
Group 1 is the model group, and the mice of group 1 are given the tail vein saline injection daily started on the second day of the tumor-bearing for 10 days.
Group 2 is the cyclophosphamide (CTX) group, and the mice of group 2 are only given the cyclophosphamide in the intraperitoneal of the mice on the second day of the tumor-bearing.
Group 3 to 18 groups are given the four compounds respectively, wherein the groups delivered 25 mg/kg drug are tail vein low-dose group, wherein the groups delivered 50 mg/kg drugs are the tail vein medium-dose group, wherein the groups delivered 100 mg/kg drugs are the tail vein high-dose group, wherein the groups delivered 200 mg/kg drugs are the oral enteral group. These mice from group 3 to 18 start the drug delivery on the second day of the tumor-bearing, and delivered once a day for 10 sequent days.
The above drug deliveries are 20 ml/kg.
After finishing the drug delivery process, weight the mice, then kill the mice by pulling off the neck, and anatomy to get the tumor tissue of the mice on the next day of finishing the drug delivery process, and then weight the anatomized tumor by electronic weighing scales to calculate the inhibition rate.

[2] = single tail vein administration 350 mg/kg; for death / survival in acute toxicity test: 14 days observation, 350 mg/kg
Method: After the drug delivery, continuously observe the mice responses for 4 hours; after all, observe the mice twice a day (one is in the morning, and the other is in the afternoon) for 14 days, wherein the observation includes the appearance, behavior, secretions, excreta of the mice etc., and recording all the death situation, poisoning symptoms, the starting time and ending time of toxic reactions of the mice, severity, duration time of toxic, and to see if it is reversible reaction etc., sent it to the pathology examination if necessary, weight the mice before and after the drug delivered day of 3, 7, 10, and 14 days. After finishing the observation process, execute all of the mice, and anatomize the dead bodies of mice.

[3] = test system: mucinous Human epidermoid A549 lung cancer cells; assay: MTT anti-tumor test in vitro, A549; type: cell-based; details: Homo sapiens, A549, 48 h
Text: (§1) A complete culture medium is used for diluting the above original solution into corresponding concentrations for later use.
(§2) Human cervical carcinoma Hela cells, human hepatoma BEL-7402 cells, mucinous Human epidermoid A549 lung cancer cells, human breast cancer MCF-7/S cells, human glioma U251 cells, and human normal embryonic kidney HEK-293 cells are purchased from USA, American Type Culture Collection (ATCC). All the tumor cells are used the DMEM medium (containing 10% FBS, 100 U/ml penicillin and 100 μg/ml streptomycin) for culturing and subculturing, and HEK-293 cells are using RPMI1640 medium (10% FBS, 100 U/ml penicillin, and 100 μg/ml streptomycin) for culturing and subculturing, wherein the culture condition is in a 5% CO2 incubator at 37° C.
(§3) Subculture six kinds of cells, which has a logarithmic growing period, adherent rate about 80%, and in good condition, such as human cervical carcinoma Hela cells, human hepatoma BEL-7402 cells, mucinous Human epidermoid A549 lung cancer cells, human breast cancer MCF-7/S cells, human glioma U251 cells, and human normal embryonic kidney HEK-293 cells. Discard the culture medium, rinse 1-2 times with PBS to remove serum, add 1 ml 0.25% Trypsin-0.01% EDTA (37° C. incubation) to digest for 1-2 minutes, add FBS culture medium to terminate the above digestion, centrifuge at a speed below 800 r/min for 2-3 minutes and discard the supernatant, re-suspended cells in 10% FBS medium, tack the cell suspension liquid for cell counting, adjust the density of the above liquid to 1×10^5/ml, then inoculate to a 96-holes plates (100 μl/hole), and then incubate in 5% CO2 incubator at 37° C. overnight. The next day add above cells to different concentrations of I-a, I-b, I-c and I-d, 100 μl/hole (its final concentration is respectively 30, 60, 120, 240, 480 μg/ml); meanwhile, set up the blank control group (0 μM), and establish 3 holes. Continuing the cultural process, discard the culture medium after 48 hours that the drug has been effected, add 100 μl PBS of 0.5 mg/ml MTT (PH 7.2) into each holes, after 4 hours culture, remove the culture medium by adherent cells express flipping method, add 100 μl of DMSO to each holes, oscillate it by micro-oscillation device for 5 minutes, and measure the OD value at 490 nm wavelength. Repeat the above experiment three times to get an average value. Calculate the inhibition rate (IR %) of the tumor cell proliferation in vitro from different concentrations of I-a, I-b, I-c, I-d by the following formula:
(§4) IR %=(1−ODsampale/ODcontrol)×100%
(§5) Use SPSS11.5 software to calculate the half inhibitory concentration IC50 of I-a, I-b, I-c and I-d. The results are shown in Table 2 to illustrate IC50 values (unit: μg/ml) of the four compounds.

[4] = test system: human breast cancer MCF-7/S cells; assay: MTT anti-tumor test in vitro, MCF-7/S; type: cell-based; details: Homo sapiens, MCF7S, 48 h, MCF-7 (MCF-7/S)
Text: as §1, §2, §3, §4, §5

[5] = test system: human hepatoma BEL-7402 cells; assay: MTT anti-tumor test in vitro, BEL-7402; type: cell-based; details: Homo sapiens, Bel-7402, 48 h, Bel- (BEL-7402)
Text: as §1, §2, §3, §4, §5

[6] = Solubility of compounds in solvents (Table 1); type: physicochemical
[7] = test system: human cervical carcinoma Hela cells; assay: MTT anti-tumor test in vitro, Hela; type: cell-based; details: Homo sapiens, HeLa, 48 h
Text: as §1, §2, §3, §4, §5

[8] = i.g. 200 mg·(kg·d)^−1, once a day for 10 days
[9] = i.v. 25 mg·(kg·d)^−1, once a day for 10 days
[10] = i.v. 25 mg·(kg·d)^−1, once a day for 10 days (low-dose group)
[11] = i.v. 50 mg·(kg·d)^−1, once a day for 10 days
[12] = i.v. 50 mg·(kg·d)^−1, once a day for 10 days (medium-dose group)
[13] = i.v. 100 mg·(kg·d)^−1, once a day for 10 days
[14] = A549, average of three experiments ± SD, MTT, 48 hours, read-out: IC50 value
[15] = A549, experiment 2, MTT, 48 hours, read-out: IC50 value
[16] = A549, experiment 3, MTT, 48 hours, read-out: IC50 value
[17] = at 48 hours, read-out: A549 cell proliferation IC50 values
[18] = average of three experiments ± SD
[19] = Hela, average of three experiments ± SD, MTT, 48 hours, read-out: IC50 value
[20] = Hela, experiment 2, MTT, 48 hours, read-out: IC50 value
[21] = Hela, experiment 3, MTT, 48 hours, read-out: IC50 value
[22] = read-out: HeLa cell proliferation IC50 values
[23] = A549, experiment 1, MTT, 48 hours, read-out: IC50 value
[24] = Hela, experiment 1, MTT, 48 hours, read-out: IC50 value

| Structure (SMILES) | Tumor weight/g [1, 8] | Tumor weight/g [1, 9] | IR/% (inhibition rate) [1, 10] | Tumor weight/g [1, 11] | Tumor weight/g [1, 13] | drug reaction after administration [2] | death / survival in acute toxicity test [2] | IC50 [3, 14] | IC50 [3, 15] | IC50 [3, 16] | IC50 [3, 17] | IC50 [4, 18] | IC50 ([4]; experiment 2) | IC50 ([4]; experiment 3) | IC50 [5, 18] | IC50 ([5]; experiment 2) | IC50 ([5]; experiment 3) | Solubility ([6]; solvent 0.1% NaOH) | Solubility ([6]; solvent Acetone) | Solubility ([6]; solvent Chloroform) | other results |
| --- | --- | --- | --- | --- | --- | --- | --- | --- | --- | --- | --- | --- | --- | --- | --- | --- | --- | --- | --- | --- | --- |
| COc1ccc(/C=C/C(=O)O)c(O)c1CC=C(C)C [I-a, (E)-2-hydroxy-4-methoxy-3-isopentenyl-cinnamic acid] | 0.907 ± 0.424 g | 1.398 ± 0.355 g | 8.8% | 1.047 ± 0.342 g | 0.775 ± 0.381 g | abnormally excited at first, and then become in an inhibit state | All the mice are survived; also recorded: no toxic deaths | 118 ± 10.6 µg/mL (≈ 451 µM) | 118 µg/mL (≈ 450 µM) | 107 µg/mL (≈ 408 µM) | 118 ± 10.6 µg/mL (≈ 451 µM) | 225 ± 11.9 µg/mL (≈ 857 µM) | 216 µg/mL (≈ 823 µM) | 219 µg/mL (≈ 835 µM) | 249 ± 17.9 µg/mL (≈ 950 µM) | 237 µg/mL (≈ 904 µM) | 269 µg/mL (≈ 1030 µM) | Soluble | Soluble | Dissolved | IR/% (inhibition rate) [1, 12]: 31.7%; Solubility ([6]; solvent DMSO): Soluble; Solubility ([6]; solvent Ethanol): Soluble; Solubility ([6]; solvent Methanol): Soluble; IC50 [7, 19]: 103 ± 8.48 µg/mL (≈ 391 µM); IC50 [7, 20]: 115 µg/mL (≈ 438 µM); IC50 [7, 21]: 96 µg/mL (≈ 366 µM); IC50 [7, 22]: 103 ± 8.48 µg/mL (≈ 391 µM) |
| COc1ccc(/C=C\C(=O)O)c(OC)c1CC=C(C)C [I-b, (Z)-2,4-dimethoxy-3-isopentenyl-cinnamic acid] | 1.108 ± 0.364 g | 1.367 ± 0.524 g | 10.8% | 1.152 ± 0.47 g | 0.911 ± 0.417 g | abnormally excited at first, and then become in an inhibit state | All the mice are survived; also recorded: no toxic deaths | 218 ± 12.6 µg/mL (≈ 788 µM) | 216 µg/mL (≈ 782 µM) | 205 µg/mL (≈ 742 µM) | 218 ± 12.6 µg/mL (≈ 788 µM) | 311 ± 7.31 µg/mL (≈ 1130 µM) | 317 µg/mL (≈ 1150 µM) | 303 µg/mL (≈ 1100 µM) | 346 ± 10.1 µg/mL (≈ 1250 µM) | 357 µg/mL (≈ 1290 µM) | 338 µg/mL (≈ 1220 µM) | Soluble | Dissolved | Dissolved | IR/% (inhibition rate) [1, 12]: 24.8%; IC50 [3, 23]: 230 µg/mL (≈ 832 µM); IC50 ([4]; experiment 1): 312 µg/mL (≈ 1130 µM); IC50 ([5]; experiment 1): 343 µg/mL (≈ 1240 µM); Solubility ([6]; solvent DMSO): Soluble; Solubility ([6]; solvent Ethanol): Dissolved; Solubility ([6]; solvent Methanol): Soluble; IC50 [7, 19]: 324 ± 11.6 µg/mL (≈ 1170 µM); IC50 [7, 24]: 331 µg/mL (≈ 1200 µM); IC50 [7, 20]: 310 µg/mL (≈ 1120 µM); IC50 [7, 21]: 328 µg/mL (≈ 1190 µM); IC50 [7, 22]: 324 ± 11.6 µg/mL (≈ 1170 µM) |
| COc1ccc(/C=C/C(=O)O)c(OC)c1CC=C(C)C [I-c, (E)-2,4-dimethoxy-3-isopentenyl-cinnamic acid] | 0.866 ± 0.489 g | 1.322 ± 0.278 g | 13.7% | 0.875 ± 0.379 g | 0.782 ± 0.368 g | abnormally excited at first, and then become in an inhibit state | All the mice are survived; also recorded: no toxic deaths | 158 ± 5.66 µg/mL (≈ 572 µM) | 162 µg/mL (≈ 586 µM) | 159 µg/mL (≈ 575 µM) | 158 ± 5.66 µg/mL (≈ 572 µM) | 235 ± 5.68 µg/mL (≈ 849 µM) | 229 µg/mL (≈ 829 µM) | 240 µg/mL (≈ 869 µM) | 313 ± 11.7 µg/mL (≈ 1130 µM) | 300 µg/mL (≈ 1090 µM) | 323 µg/mL (≈ 1170 µM) | Soluble | Dissolved | Dissolved | IC50 [3, 23]: 151 µg/mL (≈ 546 µM); IC50 ([4]; experiment 1): 234 µg/mL (≈ 847 µM); IC50 ([5]; experiment 1): 315 µg/mL (≈ 1140 µM); Solubility ([6]; solvent DMSO): Soluble; Solubility ([6]; solvent Ethanol): Dissolved; Solubility ([6]; solvent Methanol): Soluble; IC50 [7, 19]: 96.2 ± 1.25 µg/mL (≈ 348 µM); IC50 [7, 24]: 95 µg/mL (≈ 344 µM); IC50 [7, 20]: 85.6 µg/mL (≈ 310 µM); IC50 [7, 21]: 97 µg/mL (≈ 351 µM); IC50 [7, 22]: 96.2 ± 1.25 µg/mL (≈ 348 µM) |
